A word on the pIC50: it is the IC50 on a negative log10 scale, so that one unit is a factor of ten.

pIC50: −log10 of the molar value.

The assay concerns the target T1, Full-length USP19 (Homo sapiens, UniProt O94966).
T1 construct: Full-length USP19 was purchased from Boston Biochem (E-576); purchased Boston Biochem E-576
T1 sequence (O94966 1-1318): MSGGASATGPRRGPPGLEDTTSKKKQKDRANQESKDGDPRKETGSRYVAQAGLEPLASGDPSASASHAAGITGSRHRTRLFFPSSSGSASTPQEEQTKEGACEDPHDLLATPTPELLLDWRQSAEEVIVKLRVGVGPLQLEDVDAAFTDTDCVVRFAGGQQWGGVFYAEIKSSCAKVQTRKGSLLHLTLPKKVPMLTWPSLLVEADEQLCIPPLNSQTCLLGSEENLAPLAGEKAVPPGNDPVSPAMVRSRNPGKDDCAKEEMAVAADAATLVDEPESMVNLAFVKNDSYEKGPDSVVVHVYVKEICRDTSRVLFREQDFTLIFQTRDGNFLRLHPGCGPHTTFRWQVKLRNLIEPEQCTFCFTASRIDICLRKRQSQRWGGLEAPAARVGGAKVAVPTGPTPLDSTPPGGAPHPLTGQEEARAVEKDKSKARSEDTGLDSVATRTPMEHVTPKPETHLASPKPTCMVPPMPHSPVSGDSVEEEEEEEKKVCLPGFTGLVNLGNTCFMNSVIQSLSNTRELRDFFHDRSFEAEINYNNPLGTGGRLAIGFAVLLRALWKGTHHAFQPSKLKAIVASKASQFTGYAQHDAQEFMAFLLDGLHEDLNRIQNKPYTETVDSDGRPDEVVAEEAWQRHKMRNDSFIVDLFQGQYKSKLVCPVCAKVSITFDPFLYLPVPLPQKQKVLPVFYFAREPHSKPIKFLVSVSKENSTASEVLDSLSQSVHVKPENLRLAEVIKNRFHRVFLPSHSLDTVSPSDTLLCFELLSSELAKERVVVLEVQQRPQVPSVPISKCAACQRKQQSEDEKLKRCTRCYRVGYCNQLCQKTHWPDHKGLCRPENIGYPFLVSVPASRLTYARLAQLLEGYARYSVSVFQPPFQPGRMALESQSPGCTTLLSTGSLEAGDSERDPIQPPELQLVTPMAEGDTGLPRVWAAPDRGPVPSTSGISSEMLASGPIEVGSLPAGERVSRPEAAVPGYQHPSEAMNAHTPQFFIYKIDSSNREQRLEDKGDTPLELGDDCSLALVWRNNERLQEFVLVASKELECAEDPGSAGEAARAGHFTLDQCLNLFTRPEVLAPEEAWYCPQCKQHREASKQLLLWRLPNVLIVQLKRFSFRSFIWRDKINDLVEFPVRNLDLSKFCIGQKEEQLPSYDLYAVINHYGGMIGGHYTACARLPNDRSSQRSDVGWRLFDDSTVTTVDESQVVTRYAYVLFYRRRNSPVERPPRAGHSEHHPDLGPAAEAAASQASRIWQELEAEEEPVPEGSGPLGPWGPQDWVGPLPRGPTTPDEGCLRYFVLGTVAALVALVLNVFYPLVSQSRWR
The assay can be described thus: USP19 fluorescence polarisation (FP) assay, Ubiquitin-Lys-TAMRA substrate. It counts as biochemical. The following applies: average of at least two duplicate experiments. Summed up:
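Full-length human USP19 (added at 2.5 nM) was preincubated 30 min at RT with inhibitor (serial dilutions 200 μM to 2 μM) in 50 mM HEPES pH 7.4, 150 mM NaCl, 5 mM DTT, 0.05% BSA, 0.05% CHAPS. Ubiquitin-Lys-TAMRA isopeptide substrate (added at 500 nM) started the reaction, and FP (Ex 530/Em 575 nm) was read every 15 min over 90 min. IC50 came from non-linear regression of signal normalised to no-compound control, averaged over at least two duplicate experiments.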
A general note: In fluorescence polarisation assays a small probe gives low polarisation when free and higher when bound to something large.

Consider `Cc1ccccc1-c1cc(=O)n(C[C@@H]2CCN(C(=O)N3CC[C@@H](N)C[C@H]3c3cccc(F)c3)CC23CCCC3)cn1` [Example 81, 3-(((R)-7-((2S,4R)-4-Amino-2-(3-fluorophenyl)piperidine-1-carbonyl)-7-azaspiro[4.5]decan-10-yl)methyl)-6-(0-tolyl)pyrimidin-4(3H)-one], for which the pIC50 is above 8.00.
The same measure for `COc1ccccc1-c1ccn(C[C@@H]2CCN(C(=O)N3CC[C@@H](N)C[C@H]3c3cc(F)ccc3F)CC23CCCC3)c(=O)c1` [Example 89, 1-(((R)-7-((2S,4R)-4-Amino-2-(2,5-difluorophenyl)piperidine-1-carbonyl)-7-azaspiro[4.5]decan-10-yl)methyl)-4-(2-methoxyphenyl)pyridin-2(1H)-one]: above 8.00; for `COc1ccccc1-c1cc(=O)n(C[C@@H]2CCN(C(=O)N3CC[C@@H](N)C[C@H]3c3ccccc3)CC23CCCC3)cn1` [Example 92, 3-(((R)-7-((2S,4R)-4-Amino-2-phenylpiperidine-1-carbonyl)-7-azaspiro[4.5]decan-10-yl)methyl)-6-(2-methoxyphenyl)pyrimidin-4(3H)-one]: above 8.00; for `O=C(N1CCC(Cn2ccc(-c3ccccc3)cc2=O)CC1)N1CCNC[C@H]1c1ccccc1` [Example 6, (R)-4-Phenyl-1-((1-(2-phenylpiperazine-1-carbonyl)piperidin-4-yl)methyl)pyridin-2(1H)-one]: 6.00 to 7.00.
Turning to `N[C@@H]1CCN(C(=O)N2CC[C@@H](Cn3ccc(-c4ccccc4)cc3=O)C3(CCCC3)C2)[C@H](c2ccccc2)C1` [Example 23, 1-(((R)-7-((2S,4R)-4-Amino-2-phenylpiperidine-1-carbonyl)-7-azaspiro[4.5]decan-10-yl)methyl)-4-phenylpyridin-2(1H)-one], the negative-log IC50 (pIC50) is above 8.00.
The same measure for `CN[C@@H]1CCN(C(=O)N2CCC(Cn3ccc(-c4ccccc4)cc3=O)CC2)[C@H](c2cc(F)ccc2F)C1` [Example 98, 1-((1-((2S,4R)-2-(2,5-Difluorophenyl)-4-(methylamino)piperidine-1-carbonyl)piperidin-4-yl)methyl)-4-phenylpyridin-2(1H)-one]: above 8.00; for `N[C@@H]1CCN(C(=O)N2CCC(Cn3cnccc3=O)C3(CCCC3)C2)[C@H](c2ccccc2)C1` (stereo partly drawn) [Example 30, 3-((7-((2S,4R)-4-Amino-2-phenylpiperidine-1-carbonyl)-7-azaspiro[4.5]decan-10-yl)methyl) pyrimidin-4(3H)-one]: 6.00 to 7.00; for `O=C(N1CC[C@@H](Cn2ccc(Cl)cc2=O)C2(CCCC2)C1)N1CC[C@@H](NC2CC(F)(F)C2)C[C@H]1c1cc(F)ccc1F` [Example 186, 4-Chloro-1-(((R)-7-((2S,4R)-4-((3,3-difluorocyclobutyl)amino)-2-(2,5-difluorophenyl)piperidine-1-carbonyl)-7-azaspiro[4.5]decan-10-yl)methyl)pyridin-2(1H)-one]: 7.00 to 8.00.
The same measure for `Cc1ccccc1-c1cc(=O)n(C[C@@H]2CCN(C(=O)N3CC[C@@H](N)C[C@H]3c3ccccc3)CC23CCCC3)cn1` [Example 77, 3-(((R)-7-((2,4R)-4-Amino-2-phenylpiperidine-1-carbonyl)-7-azaspiro[4.5]decan-10-yl)methyl)-6-(o-tolyl)pyrimidin-4(3H)-one]: above 8.00; for `COC(=O)[C@@H]1CCN(C(=O)N2CC[C@@H](Cn3cnc(-c4ccccc4)cc3=O)C3(CCCC3)C2)[C@H](c2ccccc2)C1` [Example 76]: 4.70 to 6.00; for `Cc1ccccc1-c1ccn(C[C@@H]2CCN(C(=O)N3CC[C@@H](N)C[C@H]3c3ccccc3)CC23CCCC3)c(=O)c1` [Example 60, 1-(((R)-7-((2S,4R)-4-Amino-2-phenylpiperidine-1-carbonyl)-7-azaspiro[4.5]decan-10-yl)methyl)-4-(o-tolyl)pyridin-2(1H)-one]: above 8.00.
The same measure for `CC(C)(C)OC(=O)CN[C@@H]1CCN(C(=O)N2CC[C@@H](Cn3cnc(-c4ccccc4)cc3=O)C3(CCCC3)C2)[C@H](c2cc(F)ccc2F)C1` [Example 154, tert-Butyl ((2S,4R)-2-(2,5-difluorophenyl)-1-((R)-10-((6-oxo-4-phenylpyrimidin-1(6H)-yl)methyl)-7-azaspiro[4.5]decane-7-carbonyl)piperidin-4-yl)glycinate]: above 8.00; for `O=C(N1CC[C@@H](Cn2ccc(-c3ccccc3)cc2=O)C2(CCCC2)C1)N1CC[C@@H](O)C[C@H]1c1ccccc1` [Example 44, 1-(((R)-7-((2S,4R)-4-Hydroxy-2-phenylpiperidine-1-carbonyl)-7-azaspiro[4.5]decan-10-yl)methyl)-4-phenylpyridin-2(1H)-one]: 7.00 to 8.00.
For `CCN[C@@H]1CCN(C(=O)N2CC[C@@H](Cn3ccc(-c4ccccc4)cc3=O)C3(CCCC3)C2)[C@H](c2cc(F)ccc2F)C1` [Example 180, 1-(((R)-7-((2S,4R)-2-(2,5-Difluorophenyl)-4-(ethylamino)piperidine-1-carbonyl)-7-azaspiro[4.5]decan-10-yl)methyl)-4-phenylpyridin-2(1H)-one], the pIC50 was above 8.00.
For `CC(C)N[C@@H]1CCN(C(=O)N2CC[C@@H](Cn3cnc(-c4ccccc4)cc3=O)C3(CCCC3)C2)[C@H](c2cc(F)cc(F)c2)C1` [Example 192, 3-(((R)-7-((2S,4R)-2-(3,5-Difluorophenyl)-4-(isopropylamino)piperidine-1-carbonyl)-7-azaspiro[4.5]decan-10-yl)methyl)-6-phenylpyrimidin-4(3H)-one], the pIC50 was above 8.00.
The same measure for `CN[C@@H]1CCN(C(=O)N2CC[C@@H](Cn3ccc(Cl)cc3=O)C3(CCCC3)C2)[C@H](c2ccccc2)C1` [Example 83, 4-Chloro-1-(((R)-7-((2S,4R)-4-(methylamino)-2-phenylpiperidine-1-carbonyl)-7-azaspiro[4.5]decan-10-yl)methyl)pyridin-2(1H)-one]: above 8.00.
The same measure for `O=C(N[C@@H]1CCN(C(=O)N2CC[C@@H](Cn3ccc(-c4ccccc4)cc3=O)C3(CCCC3)C2)[C@H](c2ccccc2)C1)C1CC1` [Example 96, N-((2S,4R)-1-((R)-10-((2-Oxo-4-phenylpyridin-1(2H)-yl)methyl)-7-azaspiro[4.5]decane-7-carbonyl)-2-phenylpiperidin-4-yl)cyclopropanecarboxamide]: 7.00 to 8.00.
For `N[C@@H]1CCN(C(=O)N2CC[C@@H](Cn3cnc(-c4ccccc4)cc3=O)C3(CCCC3)C2)[C@H](c2cc(F)cc(F)c2)C1` [Example 107, 3-[[(10R)-7-[(2S,4R)-4-amino-2-(3,5-difluorophenyl)piperidine-1-carbonyl]-7-azaspiro[4.5]decan-10-yl]methyl]-6-phenyl-pyrimidin-4-one], the negative-log IC50 (pIC50) was above 8.00.
Next, `O=C(O)CN[C@@H]1CCN(C(=O)N2CC[C@@H](Cn3cnc(-c4ccccc4)cc3=O)C3(CCCC3)C2)[C@H](c2cc(F)ccc2F)C1` [Example 158]: above 8.00.
`CN[C@@H]1CCN(C(=O)N2CC[C@@H](Cn3cnc(-c4ccccc4OC)cc3=O)C3(CCCC3)C2)[C@H](c2ccc(F)cc2)C1` [Example 104, 3-(((R)-7-((2S,4R)-2-(4-Fluorophenyl)-4-(methylamino)piperidine-1-carbonyl)-7-azaspiro[4.5]decan-10-yl)methyl)-6-(2-methoxyphenyl)pyrimidin-4(3H)-one]: the pIC50 is above 8.00.
Next, `CN[C@@H]1CCN(C(=O)N2CC[C@@H](Cn3cnc(-c4ccccc4OC)cc3=O)C3(CCCC3)C2)[C@H](c2ccc(F)cc2F)C1` [Example 117, 3-(((R)-7-((2S,4R)-2-(2,4-Difluorophenyl)-4-(methylamino)piperidine-1-carbonyl)-7-azaspiro[4.5]decan-10-yl)methyl)-6-(2-methoxyphenyl)pyrimidin-4(3H)-one]: above 8.00.

The values above are taken from US20240327382A1 (ALMAC DISCOVERY LIMITED, priority 2021, published 2024).
